Results taken from the supplement of paper PMC10627819.

What was measured:
Details in all cases: main component drawn
B. subtilis 168 [1] = test: fitness (endpoint OD595 vs no drug) (fraction); higher = more growth
Summary of the method: (§1)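 Fitness was defined as the optical density at the transition into stationary phase relative to the robust mean of no-drug control wells. Values were capped at 1. Cultures were started at OD595 0.01 in 384-well plates (30 µl, or 55 µl for S. pneumoniae) in TSB, LB Lennox or CY at 37 °C. OD595 was recorded every 30 min over 14 h, with the first reading subtracted as background.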

S. aureus Newman [2] = test: as above
Summary of the method: as §1

B. subtilis 168 [3] = test: Bliss interaction score (quartile over a dose matrix) (fitness difference); higher = more antagonism (negative = synergy)
Summary of the method: (§2)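 The Bliss score is observed fitness minus expected fitness, where the expected value is the product of single-drug fitness values inferred from combination data. Fitness is OD595 at entry into stationary phase normalised to the plate's robust no-drug mean and capped at 1. Scores are reported as quartiles spanning technical, biological and donor/recipient replicates.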

S. aureus DSM 20231 = test: as above
Summary of the method: as §2

S. aureus Newman [4] = test: as above
Summary of the method: as §2

S. pneumoniae D39V = test: as above
Summary of the method: as §2
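Wherever Bliss interaction score (quartile over a dose matrix) is given: first quartile when negative (synergy) and third quartile when positive (antagonism).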

CC[C@H](C)[C@H](N)C1=N[C@H](C(=O)N[C@@H](CC(C)C)C(=O)N[C@H](CCC(=O)O)C(=O)N[C@H](C(=O)N[C@H]2CCCCNC(=O)[C@H](CC(N)=O)NC(=O)[C@@H](CC(=O)O)NC(=O)[C@H](Cc3cnc[nH]3)NC(=O)[C@@H](Cc3ccccc3)NC(=O)[C@H]([C@@H](C)CC)NC(=O)[C@@H](CCCN)NC2=O)[C@@H](C)CC)CS1 [Bacitracin] + CC1=C(C(=O)O)N2C(=O)[C@@H](NC(=O)[C@H](N)c3ccccc3)[C@H]2SC1 [Cephalexin]
fitness
Details	partner 0.125 µg/mL	partner 0.25 µg/mL	partner 0.5 µg/mL	partner 1 µg/mL
B. subtilis 168 [1], first compound 37.5 µg/mL	0.922	0.824	0.838	–
B. subtilis 168 [1], first compound 75 µg/mL	0.884	0.869	0.904	–
B. subtilis 168 [1], first compound 150 µg/mL	0.72	–	–	–
S. aureus Newman [2], first compound 18.75 µg/mL	–	0.798	0.785	0.791
S. aureus Newman [2], first compound 75 µg/mL	–	0.0499	0.0405	0.045

B. subtilis 168 [1], partner 1 µg/mL, one replicate
Details	fitness
first compound 37.5 µg/mL	0.874
first compound 75 µg/mL	0.886
first compound 150 µg/mL	0.53

Details	Bliss interaction score
B. subtilis 168 [3]	0.0854
S. aureus DSM 20231	0.0487
S. aureus Newman [4]	0.129
S. pneumoniae D39V	-0.0987

CC[C@H](C)[C@H](N)C1=N[C@H](C(=O)N[C@@H](CC(C)C)C(=O)N[C@H](CCC(=O)O)C(=O)N[C@H](C(=O)N[C@H]2CCCCNC(=O)[C@H](CC(N)=O)NC(=O)[C@@H](CC(=O)O)NC(=O)[C@H](Cc3cnc[nH]3)NC(=O)[C@@H](Cc3ccccc3)NC(=O)[C@H]([C@@H](C)CC)NC(=O)[C@@H](CCCN)NC2=O)[C@@H](C)CC)CS1 [Bacitracin] + CC1=C\[C@@H](O)CC(=O)Cc2nc(co2)C(=O)N2CCC=C2C(=O)O[C@H](C(C)C)[C@H](C)/C=C/C(=O)NC\C=C\1 [Virginiamycin M1]
fitness
Details	partner 0.0625 µg/mL	partner 0.125 µg/mL	partner 0.25 µg/mL
B. subtilis 168 [1], first compound 37.5 µg/mL	0.986	0.926	0.927
B. subtilis 168 [1], first compound 75 µg/mL	0.994	0.861	0.951
S. aureus Newman [2], first compound 18.75 µg/mL	0.698	0.698	0.705
S. aureus Newman [2], first compound 37.5 µg/mL	0.146	0.215	0.215
S. aureus Newman [2], first compound 75 µg/mL	0.037	0.0313	0.0704

fitness, S. aureus Newman [2], one replicate
Details	first compound 18.75 µg/mL	first compound 37.5 µg/mL	first compound 75 µg/mL
partner 0.5 µg/mL	0.693	0.519	0.0148
partner 1 µg/mL	0.72	0.368	0.0101
partner 2 µg/mL	0.594	0.127	0.0147

Details	Bliss interaction score
B. subtilis 168 [3]	0.0905
S. aureus DSM 20231	-0.0463
S. aureus Newman [4]	0.0498
S. pneumoniae D39V	0.094

CC[C@H](C)[C@H](N)C1=N[C@H](C(=O)N[C@@H](CC(C)C)C(=O)N[C@H](CCC(=O)O)C(=O)N[C@H](C(=O)N[C@H]2CCCCNC(=O)[C@H](CC(N)=O)NC(=O)[C@@H](CC(=O)O)NC(=O)[C@H](Cc3cnc[nH]3)NC(=O)[C@@H](Cc3ccccc3)NC(=O)[C@H]([C@@H](C)CC)NC(=O)[C@@H](CCCN)NC2=O)[C@@H](C)CC)CS1 [Bacitracin] + CC(C1CCC(C(O1)OC2C(CC(C(C2O)OC3C(C(C(CO3)(C)O)NC)O)N)N)N)NC [Gentamicin]
fitness
Details	first compound 18.75 µg/mL	first compound 37.5 µg/mL	first compound 75 µg/mL	first compound 150 µg/mL
B. subtilis 168 [1], partner 0.125 µg/mL	–	–	–	0.0432
B. subtilis 168 [1], partner 0.25 µg/mL	–	0.0865	0.0452	0.0472
S. aureus Newman [2], partner 0.375 µg/mL	0.591	0.122	0.0738	–
S. aureus Newman [2], partner 0.5 µg/mL	0.759	0.625	0.0785	–
S. aureus Newman [2], partner 0.75 µg/mL	0.461	0.137	0.0623	–
S. aureus Newman [2], partner 1 µg/mL	0.803	–	0.0125	–
S. aureus Newman [2], partner 1.5 µg/mL	–	0.163	0.0666	–
S. aureus Newman [2], partner 2 µg/mL	0.842	–	0.0163	–

Details	Bliss interaction score
B. subtilis 168 [3]	-0.298
S. aureus DSM 20231	-0.0565
S. aureus Newman [4]	0.102
S. pneumoniae D39V	-0.149

CC[C@H](C)[C@H](N)C1=N[C@H](C(=O)N[C@@H](CC(C)C)C(=O)N[C@H](CCC(=O)O)C(=O)N[C@H](C(=O)N[C@H]2CCCCNC(=O)[C@H](CC(N)=O)NC(=O)[C@@H](CC(=O)O)NC(=O)[C@H](Cc3cnc[nH]3)NC(=O)[C@@H](Cc3ccccc3)NC(=O)[C@H]([C@@H](C)CC)NC(=O)[C@@H](CCCN)NC2=O)[C@@H](C)CC)CS1 [Bacitracin] + CCC[C@@H]1C[C@@H](C(=O)N[C@@H]([C@H]2O[C@H](SC)[C@H](O)[C@@H](O)[C@H]2O)[C@H](C)Cl)N(C)C1 [Clindamycin]
fitness, B. subtilis 168 [1], one replicate
Details	first compound 37.5 µg/mL	first compound 75 µg/mL	first compound 150 µg/mL
partner 0.0039 µg/mL	0.995	≥ 1	≥ 1
partner 0.0078 µg/mL	0.878	0.891	0.845
partner 0.0156 µg/mL	0.831	0.861	0.871

fitness
Details	first compound 18.75 µg/mL	first compound 37.5 µg/mL	first compound 75 µg/mL	first compound 150 µg/mL
B. subtilis 168 [1], partner 0.0625 µg/mL	–	0.649	0.568	–
B. subtilis 168 [1], partner 0.125 µg/mL	–	0.42	0.364	0.108
B. subtilis 168 [1], partner 0.25 µg/mL	–	0.363	0.241	0.0433
S. aureus Newman [2], partner 0.0312 µg/mL	–	–	0.0388	–
S. aureus Newman [2], partner 0.0625 µg/mL	–	0.067	0.0139	–
S. aureus Newman [2], partner 0.125 µg/mL	0.0166	0.0173	0.0265	–

Details	Bliss interaction score
B. subtilis 168 [3]	-0.0851
S. aureus DSM 20231	0.0155
S. aureus Newman [4]	-0.052
S. pneumoniae D39V	-0.071

CN[C@@H]1[C@H](O[C@H]2[C@H](O[C@H]3[C@H](O)[C@@H](O)[C@H](N=C(N)N)[C@@H](O)[C@@H]3N=C(N)N)O[C@@H](C)[C@]2(O)C=O)O[C@@H](CO)[C@H](O)[C@H]1O [Streptomycin] + CCCCCCCCCC(=O)N[C@@H]1[C@H]([C@@H]([C@H](O[C@H]1OC2=C3C=C4C=C2OC5=C(C=C(C=C5)[C@H]([C@H]6C(=O)N[C@@H](C7=C(C(=CC(=C7)O)OC8[C@H]([C@H]([C@@H]([C@H](O8)CO)O)O)O)C9=C(C=CC(=C9)[C@H](C(=O)N6)NC(=O)[C@@H]4NC(=O)[C@@H]1C2=CC(=CC(=C2)OC2=C(C=CC(=C2)[C@H](C(=O)N[C@H](CC2=CC(=C(O3)C=C2)Cl)C(=O)N1)N)O)O)O)C(=O)O)O[C@H]1[C@@H]([C@H]([C@@H]([C@H](O1)CO)O)O)NC(=O)C)Cl)CO)O)O [Teicoplanin]
fitness, S. aureus Newman [2]
Details	first compound 1 µg/mL	first compound 2 µg/mL	first compound 4 µg/mL
partner 0.1562 µg/mL	≥ 1	≥ 1	–
partner 0.3125 µg/mL	≥ 1	0.932	–
partner 0.625 µg/mL	0.917	0.803	0.344

fitness, S. aureus Newman [2], one replicate
Details	first compound 2 µg/mL	first compound 4 µg/mL	first compound 8 µg/mL
partner 0.62 µg/mL	0.737	0.574	0.0838
partner 1.24 µg/mL	0.527	0.0741	0.0255
partner 2.48 µg/mL	0.0707	0.0385	0.103

Details	Bliss interaction score
B. subtilis 168 [3]	-0.0977
S. aureus DSM 20231	-0.227
S. aureus Newman [4]	-0.118
S. pneumoniae D39V	-0.0928
